Laboratory results reported in patent US9133204B2, “5-membered heterocyclic amides and related compounds” (H. Lundbeck A/S, priority 2007, dated 2015).

Each compound was assayed against T1, P2X7 receptor (Homo sapiens, UniProt Q99572) (assay: High throughput P2X7 calcium mobilization assay (Example 4A)). Settings: SH-SY5Y cells; 50% decrease in fluorescence response of cells exposed to 80 μM BzATP; Table I.
T1 construct: host or cells: SH-SY5Y
T1 sequence (Q99572 1-595): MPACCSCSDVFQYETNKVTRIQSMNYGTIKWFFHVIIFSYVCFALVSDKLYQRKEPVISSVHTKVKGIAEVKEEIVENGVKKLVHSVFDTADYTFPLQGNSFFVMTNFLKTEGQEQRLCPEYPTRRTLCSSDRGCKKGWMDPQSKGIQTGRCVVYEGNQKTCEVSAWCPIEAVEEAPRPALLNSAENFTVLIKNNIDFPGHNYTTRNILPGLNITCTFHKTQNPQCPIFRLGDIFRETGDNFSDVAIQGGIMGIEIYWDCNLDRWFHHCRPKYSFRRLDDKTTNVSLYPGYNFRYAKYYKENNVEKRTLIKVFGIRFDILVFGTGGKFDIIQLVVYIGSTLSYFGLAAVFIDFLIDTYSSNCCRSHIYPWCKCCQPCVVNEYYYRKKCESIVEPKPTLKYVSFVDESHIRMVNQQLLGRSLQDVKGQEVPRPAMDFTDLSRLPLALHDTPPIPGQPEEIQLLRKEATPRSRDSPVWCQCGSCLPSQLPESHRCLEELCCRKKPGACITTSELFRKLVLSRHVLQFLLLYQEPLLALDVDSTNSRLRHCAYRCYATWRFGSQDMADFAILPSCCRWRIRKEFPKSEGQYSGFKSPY
Format: cell-based
Outline: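 Calcium mobilization read by FLIPR as peak fluorescence over 2 min after adding BzATP to a final 80 μM (about EC50). Beforehand, Fluo-4 AM-loaded SH-SY5Y cells sat 1 h at room temperature with compound at 1–2500 nM in pH 7.4 sucrose/HEPES buffer; signal minus no-agonist wells.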
`Cc1nn(-c2ncc(F)c(N)n2)cc1C(=O)NCC(CC(C)C)c1ccc(C(F)(F)F)cc1` (centres unmarked) [Compound 116, 1-(4-amino-5-fluoropyrimidin-2-yl)-3-methyl-N-{4-methyl-2-[4-(trifluoromethyl)phenyl]pentyl}-1H-pyrazole-4-carboxamide] was tested, and the IC50 was ≤ 2000 nM.
In the case of `Cc1nn(-c2ncc(F)cn2)cc1C(=O)NCC(CC(C)C)c1ccc(C(F)(F)F)cc1` (centres unmarked) [Compound 117, 1-(5-fluoropyrimidin-2-yl)-3-methyl-N-{4-methyl-2-[4-(trifluoromethyl)phenyl]pentyl}-1H-pyrazole-4-carboxamide], the IC50 is reported as ≤ 2000 nM.
For `O=C(NCC12CC3CC(CC(C3)C1)C2)c1cn(-c2ncc(F)cn2)nc1C(F)(F)F` [Compound 118, N-(adamantan-1-ylmethyl)-1-(5-fluoropyrimidin-2-yl)-3-(trifluoromethyl)-1H-pyrazole-4-carboxamide], the IC50 was ≤ 2000 nM.
With `Cc1cnc(-n2cc(C(=O)NCC34CC5CC(CC(C5)C3)C4)c(C)n2)nc1-c1ccncc1` [Compound 119, N-(adamantan-1-ylmethyl)-3-methyl-1-(5-methyl-4-pyridin-4-ylpyrimidin-2-yl)-1H-pyrazole-4-carboxamide] the IC50 was ≤ 2000 nM.
With `Cc1cnc(-n2cc(C(=O)NCC34CC5CC(CC(C5)C3)C4)c(C)n2)nc1-c1cncnc1` [Compound 120, N-(adamantan-1-ylmethyl)-3-methyl-1-(5-methyl-4,5′ bipyrimidin-2-yl)-1H-pyrazole-4-carboxamide] the IC50 was ≤ 2000 nM.
`Cc1cnc(-n2cc(C(=O)NCC34CC5CC(CC(C5)C3)C4)c(C)n2)nc1-c1ccccn1` [Compound 121, N-(adamantan-1-ylmethyl)-3-methyl-1-(5-methyl-4-pyridin-2-ylpyrimidin-2-yl)-1H-pyrazole-4-carboxamide] was tested, and the IC50 was ≤ 2000 nM.
With `Cc1cnc(-n2cc(C(=O)NCC34CC5CC(CC(C5)C3)C4)c(C)n2)nc1-c1ncccn1` [Compound 122, N-(adamantan-1-ylmethyl)-3-methyl-1-(5′-methyl-2,4′-bipyrimidin-2′-yl)-1H-pyrazole-4-carboxamide] the IC50 was ≤ 2000 nM.
In the case of `Cc1cnc(-n2cc(C(=O)NCC34CC5CC(CC(C5)C3)C4)c(C(F)(F)F)n2)nc1N` [Compound 123, N-(adamantan-1-ylmethyl)-1-(4-amino-5-methylpyrimidin-2-yl)-3-(trifluoromethyl)-1H-pyrazole-4-carboxamide], the IC50 is reported as ≤ 2000 nM.
In the case of `Cc1ccc(-n2cc(C(=O)NCC34CC5CC(CC(C5)C3)C4)c(C(F)(F)F)n2)nc1` [Compound 124, N-(adamantan-1-ylmethyl)-1-(5-methylpyridin-2-yl)-3-(trifluoromethyl)-1H-pyrazole-4-carboxamide], the IC50 is reported as ≤ 2000 nM.
For `Cc1nn(-c2ncc(Br)cn2)cc1C(=O)NCC12CC3CC(CC(C3)C1)C2` [Compound 125, N-(adamantan-1-ylmethyl)-1-(5-bromopyrimidin-2-yl)-3-methyl-1H-pyrazole-4-carboxamide], the IC50 was ≤ 2000 nM.
With `CC(C)c1nn(-c2ncc(F)c(N)n2)cc1C(=O)NCC12CC3CC(CC(C3)C1)C2` [Compound 126, N-(adamantan-1-ylmethyl)-1-(4-amino-5-fluoropyrimidin-2-yl)-3-isopropyl-1H-pyrazole-4-carboxamide] the IC50 was ≤ 2000 nM.
With `CC(C)c1nn(-c2ncc(F)cn2)cc1C(=O)NCC12CC3CC(CC(C3)C1)C2` [Compound 127, N-(adamantan-1-ylmethyl)-1-(5-fluoropyrimidin-2-yl)-3-isopropyl-1H-pyrazole-4-carboxamide] the IC50 was ≤ 2000 nM.
For `Cc1c(N)ncnc1-n1cc(C(=O)NCC23CC4CC(CC(C4)C2)C3)c(C(F)(F)F)n1` [Compound 128, N-(adamantan-1-ylmethyl)-1-(6-amino-5-methylpyrimidin-4-yl)-3-(trifluoromethyl)-1H-pyrazole-4-carboxamide], the IC50 was ≤ 2000 nM.
`O=C(NCC12CC3CC(CC(C3)C1)C2)c1cn(-c2ncccn2)nc1C(F)(F)F` [Compound 129, N-(adamantan-1-ylmethyl)-1-pyrimidin-2-yl-3-(trifluoromethyl)-1H-pyrazole-4-carboxamide] was tested, and the IC50 was ≤ 2000 nM.
`Nc1ccnc(-n2cc(C(=O)NCC34CC5CC(CC(C5)C3)C4)c(C(F)(F)F)n2)n1` [Compound 130, N-(adamantan-1-ylmethyl)-1-(4-aminopyrimidin-2-yl)-3-(trifluoromethyl)-1H-pyrazole-4-carboxamide] was tested, and the IC50 was ≤ 2000 nM.
With `Nc1cccnc1-n1cc(C(=O)NCC23CC4CC(CC(C4)C2)C3)c(C(F)(F)F)n1` [Compound 131, N-(adamantan-1-ylmethyl)-1-(3-aminopyridin-2-yl)-3-(trifluoromethyl)-1H-pyrazole-4-carboxamide] the IC50 was ≤ 2000 nM.
With `Cc1cccnc1-n1cc(C(=O)NCC23CC4CC(CC(C4)C2)C3)c(C(F)(F)F)n1` [Compound 132, N-(adamantan-1-ylmethyl)-1-(3-methylpyridin-2-yl)-3-(trifluoromethyl)-1H-pyrazole-4-carboxamide] the IC50 was ≤ 2000 nM.
`CC(C)c1nn(-c2nccs2)cc1C(=O)NCC12CC3CC(CC(C3)C1)C2` [Compound 133, N-(adamantan-1-ylmethyl)-3-isopropyl-1-(1,3-thiazol-2-yl)-1H-pyrazole-4-carboxamide] was tested, and the IC50 was ≤ 2000 nM.
In the case of `O=C(NCC12CC3CC(CC(C3)C1)C2)c1c[nH]nc1C(F)(F)F` [Compound 134, N-(adamantan-1-ylmethyl)-3-(trifluoromethyl)-1H-pyrazole-4-carboxamide], the IC50 is reported as ≤ 2000 nM.
For `O=C(NCC12CC3CC(CC(C3)C1)C2)c1cn(-c2nccs2)nc1C(F)(F)F` [Compound 135, N-(adamantan-1-ylmethyl)-1-(1,3-thiazol-2-yl)-3-(trifluoromethyl)-1H-pyrazole-4-carboxamide], the IC50 was ≤ 2000 nM.
In the case of `O=C(NCC12CC3CC(CC(C3)C1)C2)c1cn(-c2cnccn2)nc1C(F)(F)F` [Compound 136, N-(adamantan-1-ylmethyl)-1-pyrazin-2-yl-3-(trifluoromethyl)-1H-pyrazole-4-carboxamide], the IC50 is reported as ≤ 2000 nM.
In the case of `Nc1cncc(-n2cc(C(=O)NCC34CC5CC(CC(C5)C3)C4)c(C(F)(F)F)n2)n1` [Compound 137, N-(adamantan-1-ylmethyl)-1-(6-aminopyrazin-2-yl)-3-(trifluoromethyl)-1H-pyrazole-4-carboxamide], the IC50 is reported as ≤ 2000 nM.
In the case of `Cc1ccc(C2(CNC(=O)c3cn(-c4ncc(F)c(N)n4)nc3C(F)(F)F)CCCCC2)cn1` [Compound 138, 1-(4-amino-5-fluoropyrimidin-2-yl)-N-{[1-(6-methylpyridin-3-yl)cyclohexyl]methyl}-3-(trifluoromethyl)-1H-pyrazole-4-carboxamide], the IC50 is reported as ≤ 2000 nM.
With `CC(C)CC(CNC(=O)c1cn(-c2ncc(F)c(N)n2)nc1C(F)(F)F)c1cccnc1` (centres unmarked) [Compound 139, 1-(4-amino-5-fluoropyrimidin-2-yl)-N-(4-methyl-2-pyridin-3-ylpentyl)-3-(trifluoromethyl)-1H-pyrazole-4-carboxamide] the IC50 was ≤ 2000 nM.
For `CC(C)CC(CNC(=O)c1cn(-c2ncc(F)c(N)n2)nc1C(F)(F)F)c1ccc(Cl)cc1` (centres unmarked) [Compound 140, 1-(4-amino-5-fluoropyrimidin-2-yl)-N-[2-(4-chlorophenyl)-4-methylpentyl]-3-(trifluoromethyl)-1H-pyrazole-4-carboxamide], the IC50 was ≤ 2000 nM.
In the case of `Nc1nc(-n2cc(C(=O)NCC3(c4ccc(Cl)cc4)CCCCC3)c(C(F)(F)F)n2)ncc1F` [Compound 141, 1-(4-amino-5-fluoropyrimidin-2-yl)-N-{[1-(4-chlorophenyl)cyclohexyl]methyl}-3-(trifluoromethyl)-1H-pyrazole-4-carboxamide], the IC50 is reported as ≤ 2000 nM.
`Cn1ccnc1-n1cc(C(=O)NCC23CC4CC(CC(C4)C2)C3)c(C(F)(F)F)n1` [Compound 142, N-(adamantan-1-ylmethyl)-1-(1-methyl-1H-imidazol-2-yl)-3-(trifluoromethyl)-1H-pyrazole-4-carboxamide] was tested, and the IC50 was ≤ 2000 nM.
In the case of `COc1ccc(-n2cc(C(=O)NCC34CC5CC(CC(C5)C3)C4)c(C(C)C)n2)nn1` [Compound 143, N-(adamantan-1-ylmethyl)-3-isopropyl-1-(6-methoxypyridazin-3-yl)-1H-pyrazole-4-carboxamide], the IC50 is reported as ≤ 2000 nM.
`Nc1nc(-n2cc(C(=O)NCC3(N4CCOCC4)CCCCC3)c(C(F)(F)F)n2)ncc1F` [Compound 144, 1-(4-amino-5-fluoropyrimidin-2-yl)-N-[(1-morpholin-4-ylcyclohexyl)methyl]-3-(trifluoromethyl)-1H-pyrazole-4-carboxamide] was tested, and the IC50 was ≤ 2000 nM.
With `O=C(NCC12CC3CC(CC(C3)C1)C2)c1cn(-c2ncccn2)nc1C1CC1` [Compound 145, N-(adamantan-1-ylmethyl)-3-cyclopropyl-1-pyrimidin-2-yl-1H-pyrazole-4-carboxamide] the IC50 was ≤ 2000 nM.
For `Nc1ccnc(-n2cc(C(=O)NCC34CC5CC(CC(C5)C3)C4)c(C3CC3)n2)n1` [Compound 146, N-(adamantan-1-ylmethyl)-1-(4-aminopyrimidin-2-yl)-3-cyclopropyl-1H-pyrazole-4-carboxamide], the IC50 was ≤ 2000 nM.
`Nc1nccnc1-n1cc(C(=O)NCC23CC4CC(CC(C4)C2)C3)c(C(F)(F)F)n1` [Compound 147, N-(adamantan-1-ylmethyl)-1-(3-aminopyrazin-2-yl)-3-(trifluoromethyl)-1H-pyrazole-4-carboxamide] was tested, and the IC50 was ≤ 2000 nM.
